Measured values reported in patent US7144733B2, “Bio-synthetic photostimulators and methods of use” (Sloan-Kettering Institute for Cancer Research, priority 2001, dated 2006).
“Also recorded” adds a separate entry of the source.

Columns and labels:
[1] = test system: hippocampal neurons; assay: Photostimulation of chARGed hippocampal neurons in primary culture, whole-cell current clamp; type: cell-based; details: 50 μM AP-5 plus 10 μM CNQX together; n=5 neurons
Description: (§1) Synthetic all-trans retinal (Sigma) was diluted, from a 100-mM stock in DMSO, to 40 μM in the appropriate extracellular recording solution (see below) and allowed to bind to NinaE for 15 min in the dark. A mechanically shuttered (Uniblitz, Vincent Associates) Lambda DG-4 rapid wavelength changer (Sutter Instruments) delivered <2 mW of stimulating light without ultraviolet and infrared (E400LP, Chroma; Hot Mirror, Newport) components through 20×/0.4 (oocytes) or 40×/0.8 W (neurons) Zeiss Achroplan objectives. In some experiments, a short pre-illumination with red light (E600LP plus HQ625/40, both from Chroma) preceded the white-light stimulus. Light source and shutter were controlled through pClamp 8.0 (Axon Instruments) and MetaFluor 4.5 (Universal Imaging).
Hippocampal neurons obtained from E19 rats were grown in dissociated cultures (Yuste, Miller et al. “Synapto-pHluorins: chimeras between pH-sensitive mutants of green fluorescent protein and synaptic vesicle membrane proteins as reporters of neurotransmitter release,” Methods Enzymol 522–46 (2000)) and transfected with a calcium phosphate precipitate (pH 7.08) formed from a 1:1 mixture of CsCl-banded pChARGe-1 and pChARGe-2. Neurons were exposed to 4.2 μg/cm^2 of precipitated DNA for 20 minutes. Transfections were done on day 8 after plating, recordings on days 6–10 after transfection. Neurons were identified under DIC and epifluorescence illumination (to distinguish transfected from untransfected cells; FIG. 3) and placed under whole-cell current clamp before reconstitution of NinaE with retinal. Patch pipettes (˜2.5 MΩ) contained, in mM, 120 K-gluconate, 10 KCl, 5 ATP, 0.3 GTP, and 10 K-HEPES, pH 7.2. The extracellular recording solution contained, in mM, 119 NaCl, 2.5 KCl, 2 CaCl2, 1 MgCl2, 30 glucose, 25 Na-HEPES, pH 7.4. Membrane potentials were recorded with an Axoclamp-2B amplifier (Axon Instruments) in bridge mode and digitized at 5 kHz (Digidata 1200, Axon Instruments).
For intracellular recordings of light-evoked electrical activity, neurons were placed under whole-cell current clamp before reconstitution of NinaE with retinal. […] Exposure to white light increased the frequency of action potentials dramatically (FIGS. 4, A–D, and FIG. 5). Peak firing frequencies of 7.5 Hz (evaluated in sliding 2-s windows), equal to those generated by the direct injection of 200–250 pA of sustained depolarizing current into transfected and untransfected neurons, appeared after latency periods of a few hundred ms to several tens of s (n=18 neurons). […]

[2] = test system: Xenopus oocytes; assay: Light-evoked photocurrents in voltage-clamped Xenopus oocytes expressing Drosophila phototransduction proteins; type: cell-based
Description: as §1
Stage VI oocytes were microinjected with the specified mRNA mixtures, which were adjusted to keep the doses of individual messages constant at 2–4 fmol/oocyte. Photocurrents were recorded at −80 mV with a two-electrode voltage-clamp amplifier (Axoclamp-2B, Axon Instruments) 2–4 days after mRNA injection. Electrodes (2–3 MΩ) were filled with 3 M KCl; the extracellular recording solution (Barth's Saline) contained, in mM, 87.5 NaCl, 2 KCl, 2.4 NaHCO3, 2 CaCl2, 1 MgCl2, 5 Tris-HCl, pH 7.2. Signals were externally amplified (CyberAmp 380, Axon Instruments) before digitization at 100 Hz (Digidata 1200, Axon Instruments). To block IP3-sensitive Ca^2+ stores where indicated, 20 μM xestospongin C (Gafni et al., 1997; Calbiochem) was present throughout the experiment, beginning with the retinal load.
Unliganded NinaE in the membrane of voltage-clamped oocytes was reconstituted in the dark with 40 μM synthetic all-trans retinal, to form a metarhodopsin-like intermediate that could be further photoconverted (Hillman et al., 1983; Kiselev and Subramaniam, 1994; Ranganathan and Stevens, 1995) to rhodopsin. […]

Row | Structure (SMILES) | EPSPs in the membrane potential record under glutamate receptor block [1] | light-induced action potentials under glutamate receptor block [1] | dependence of light-evoked current responses on reconstitution of NinaE with retinal ([2]; 40 μM all-trans retinal, 15 min in the dark, n=9 oocytes) | photocurrent over time after a single retinal load, in the absence of exogenous retinal ([2]; NinaE reconstituted with 40 μM all-trans retinal for 15 min, then retinal-free perfusion for hours, n=8 oocytes) | light-evoked current responses in the presence of xestospongin C ([2]; 20 μM xestospongin C present throughout, oocytes expressing 10 photoreceptor proteins, n=5 oocytes)
1 | NC(CCCP(=O)(O)O)C(=O)O (racemic) [AP-5, D,L-2-amino-5-phosphonovaleric acid] | vanished; also recorded: elimination | persisted | – | – | –
2 | N#Cc1cc2c(cc1[N+](=O)[O-])=NC(=O)C(=O)N=2 [CNQX, 6-cyano-7-nitroquinoxaline-2,3-dione] | vanished; also recorded: elimination | persisted | – | – | –
3 | CC1=C(/C=C/C(C)=C/C=C/C(C)=C/C=O)C(C)(C)CCC1 [all-trans retinal] | – | – | required | no attenuation | –
4 | C1CCC[C@H]2CCCN3CC[C@@H](CCCCCC[C@@H]4CCCN5CC[C@@H](CC1)O[C@@H]45)O[C@@H]23 [xestospongin C] | – | – | – | – | inhibited
